# Where two headings read alike, the source gives them in different places.
# Tests used:
# in vivo = details: CD-1, mouse
# Description: (§2) Each of the three compounds was dissolved in DMSO (20 mg/mL), mixed with 30% hydroxypropyl-β-cyclodextrin at a 1:9 ratio, and administered to the CD-1 mice intraperitoneally (ip) or orally (po) through a gavage. After compound administration, blood samples (3 mice per compound) were collected at nine time points, i.e., at 5 minutes, 0.25 hours, 0.5 hours, 1 hour, 2 hours, 4 hours, 8 hours, 12 hours, and 24 hours, through the tail vein. Plasma was isolated from these blood samples and the compound plasma concentrations were determined by HPLC-MS/MS. Pharmacokinetic parameters were calculated using the program PKSolver, an add-in program for use in analyzing pharmacokinetic and pharmacodynamics data analysis, as described in Zhang et al., Computer Methods and Programs in Biomedicine, 99: 306-314 (2010).
# [1] = tested on: mice after myocardial infarction; test: Myocardial infarction model, permanent LAD ligation (echocardiography, histology, immunostaining, PET, EM); type: in vivo, ICR (CD1) mice; details: six weeks post-MI, picrosirius red
# Description: Model of heart failure in adult mice. To induce myocardial infarction (MI) in 8- to 10-week-old mice, the left anterior descending (LAD) artery was permanently ligated. Briefly, mice were anesthetized with 2% isoflurane and then intubated. The heart was exposed by performing a thoracotomy through the fourth or fifth intercostal space and an 8-0 nylon suture was tied around the LAD artery. 10 uls of Adenoviral SRC-3 (Ad-SRC-3) or adenoviral GFP (Ad-GFP) at a titre of 9×10^9 pfu/ml was injected into the anterior free wall near left ventricular descending coronary artery. To assess cell cycle entry, the analog 5-ethynyl-2′-deoxyuridine (EdU; 0.2 g/L, Santa Cruz, SC-284628A) was added to the drinking water for the 9 day duration of the experiment. Cell proliferation was measured using Click-iT EdU kit (Invitrogen, C10339). The initial dose of MCB-613 was administered intraperitoneally at 20 mg/kg 2 hours after surgery. Subsequent injections of the same dose were given for 6 additional days, and then repeated doses were given for 3 days at week 9 and week 16. Mice were harvested at indicated time points for analyses.
# Echocardiography. Cardiac function was determined by echocardiography (VisualSonics, Vevo 2100, 40 Mhz-550S probe). After alignment in the transverse B-mode with the papillary muscles, cardiac function was measured on M-mode images.
# (§1) Histological analysis. Whole hearts were fixed with 10% formalin, embedded in paraffin, and sectioned at 7 μm intervals. Each slide had 3 or 10 sections, which started at the apex and ended at the suture ligation site (approximately 30-50 slides). Sections at the papillary level (slides 20-30) were stained with Picrosirius red to identify areas of fibrosis. Infarct size was determined using a length-based approach.
# Immunostaining analysis. Immunohistochemistry and immunofluorescent staining experiments were performed on FFPE (formalin-fixed and paraffin-embedded sections). TUNEL staining to detect apoptotic cells was done using the DeadEnd™ Fluorometric TUNEL System manufacturer's protocol (Promega, GS3250).
# Model of heart failure in adult mice. To induce MI in eight- to ten-week-old mice, the left anterior descending (LAD) artery was permanently ligated. Briefly, mice were anesthetized with 2% isoflurane and then intubated. The heart was exposed by performing a thoracotomy through the fourth or fifth intercostal space and an 8-0 nylon suture was tied around the LAD. The initial dose of MCB-613 was administered intraperitoneally at 20 mg/kg, two hours after surgery. Subsequent injection at the same time of the day and same dose were given for six additional days, and then repeated doses were given for three days at week nine and week 16. Mice were harvested at the indicated time points for analyses.
# Echocardiography. Cardiac function was determined by echocardiography (VisualSonics, Vevo 2100, 40 Mhz-550S probe). After alignment in the transverse B-mode with the papillary muscles, cardiac function was measured on M-mode images. Animal numbers for cardiac function in FIG. 11A are Day 0 control (17); MCB-613 (15), Day 1 control (10); MCB-613 (12), Day 14 […], Day 56 control (12); MCB-613 (15), Day 70 control (8); MCB-613 (10), Day 80 control (8); MCB-613 (11), Day 133 control (3); and MCB-613 (3).
# as §1, with “three (3) to ten (10)” for “3 or 10”, “approach. TUNEL staining to detect apoptotic cells was performed using the DeadEnd™ Fluorometric TUNEL System (Promega, GS3250).” for “approach.”
# Electron Microscopy. […]
# [2] = mouse, in vivo
# Description: as §2
# [3] = tested on: SRC-1, SRC-2 or SRC-3 fused with the DNA binding domain of Gal4; test: Gal4 luciferase reporter (pG5-luc / pBIND-SRC) in HeLa cells; type: cell-based; details: pG5-luc + pBIND-SRC-1, -2 or -3
# Source text: The compounds described herein stimulate SRC intrinsic transcriptional activity. HeLa cells transfected with a Gal4 responsive luciferase reporter (pG5-luc) and a construct encoding SRC-1, SRC-2 or SRC-3 fused with the DNA binding domain of Gal4 (pBIND-SRC-1, pBIND-SRC-2 or pBIND-SRC-3) were exposed to treatments with compounds as described herein, including MCB-613, Compound 10-1, and Compound 10-2.
# [4] = tested on: mice after myocardial infarction; test: Progressive maximal exercise test, indirect calorimetry (VO2, VCO2); type: in vivo; details: after myocardial infarction
# Description: RER, VO2 and VCO2 measurements. Respiratory exchange ratio (RER), oxygen consumption (VO^2) and carbon dioxide expiration (VCO2) were measured by indirect calorimetry using a progressive maximal exercise test until mice reached exhaustion.
# RER, VO2 and VCO2 measurements. RER, VO2 and VCO2 were measured by indirect calorimetry using a progressive maximal exercise test until mice reached exhaustion.
AUC(0-inf) (in vivo; ip),AUC(0-t) (in vivo; ip),Cmax (in vivo; ip),Tmax (in vivo; ip),"half-life (in vivo; ip, Terminal phase t1/2)","half-life (in vivo; ip, t1/2)",AUC(0-inf) (in vivo; po),AUC(0-t) (in vivo; po),Cmax (in vivo; po),Tmax (in vivo; po),"half-life (in vivo; po, Terminal phase t1/2)","half-life (in vivo; po, t1/2)",Cl ([2]; ip),Cl ([2]; po),Structure (SMILES),infarct size vs saline control [1],intrinsic transcriptional activity of SRCs (luciferase) [3],"cardiovascular fitness (VCO2, VO2, FIG. 9) [4]"
851 ng·h/mL,623 ng·h/mL,357 ng/mL,15 min,1090 min,38.4 min,113 ng·h/mL,98.4 ng·h/mL,53.2 ng/mL,30 min,612 min,72 min,0.97 (mg)/(ng/mL)/h,7.3 (mg)/(ng/mL)/h,"COc1ccccc1/C=C1\CN(CCC(C)C)C/C(=C\c2ccccc2OC)C1=O [Compound 10-1, (3E,5E)-1-isopentyl-3,5-bis(2-methoxybenzylidene)piperidin-4-one]",decrease in infarct size,selectively stimulates the intrinsic transcriptional activity of SRCs,improves cardiovascular fitness after myocardial infarction
482 ng·h/mL,334 ng·h/mL,463 ng/mL,4.8 min,954 min,15 min,135 ng·h/mL,131 ng·h/mL,182 ng/mL,15 min,1630 min,46.8 min,1.7 (mg)/(ng/mL)/h,6.1 (mg)/(ng/mL)/h,"COc1cccc(/C=C2\CN(CCC(C)C)C/C(=C\c3cccc(OC)c3)C2=O)c1 [Compound 10-2, (3E,5E)-1-isopentyl-3,5-bis(3-methoxybenzylidene)piperidin-4-one]",–,selectively stimulates the intrinsic transcriptional activity of SRCs,–

# Source: patent US12338229B2, “Small molecule stimulators of steroid receptor coactivator-3 and methods of their use as cardioprotective and/or vascular regenerative agents” (BAYLOR COLLEGE OF MEDICINE, priority 2018, dated 2025)
